Measured values as given in article PMC8323883, “PlzA is a bifunctional c-di-GMP biosensor that promotes tick and mammalian host-adaptation of Borrelia burgdorferi” (PLoS Pathogens, 2021).

Target: T1, PlzA (BB0733) (Borreliella burgdorferi, UniProt O51675)
T1 construct: gene BB_0733; PilZN3-PilZ domains
Assay: SAXS with and without ligand (Kratky plots)
Assay type: binding
Details: 33-135 µM PlzA, 270 µM c-di-GMP; 500 mM NaCl, 20 mM Na2HPO4, pH 7.4; ligand-induced conformational change

T1 sequence (O51675 entry or part of it): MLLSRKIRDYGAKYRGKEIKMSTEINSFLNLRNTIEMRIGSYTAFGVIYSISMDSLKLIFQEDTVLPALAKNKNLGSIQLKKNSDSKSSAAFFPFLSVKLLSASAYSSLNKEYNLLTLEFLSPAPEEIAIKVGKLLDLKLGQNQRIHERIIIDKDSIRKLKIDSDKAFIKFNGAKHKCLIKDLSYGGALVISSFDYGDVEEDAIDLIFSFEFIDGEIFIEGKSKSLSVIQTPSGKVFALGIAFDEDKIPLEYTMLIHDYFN

Nc1nc2c(ncn2[C@@H]2O[C@@H]3COP(=O)(O)O[C@H]4[C@@H](O)[C@H](n5cnc6c(=O)[nH]c(N)nc65)O[C@@H]4COP(=O)(O)O[C@H]3[C@H]2O)c(=O)[nH]1 [c-di-GMP, bis-(3′-5′)-cyclic dimeric guanosine monophosphate]
SAXS with and without ligand (Kratky plots): confirming a major structural rearrangement upon binding of c-di-GMP
